Source: PubChem BioAssay (NCI)
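96-well plates; 48 h exposure; 5 concentrations. Endpoints by linear interpolation between flanking doses. Not reached: highest tested concentration assigned. At the TGI there is no net growth.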

Key:
Experiment in all cases: inhibition of tumour cell growth, NCI panel, 48 h
[1] = system: OVCAR-3 ovarian
[2] = system: SK-MEL-28 melanoma
[3] = system: RXF 393 renal
[4] = system: HOP-62 NSCLC
[5] = system: MALME-3M melanoma
[6] = system: UACC-62 melanoma
[7] = system: K-562 leukemia
[8] = system: PC-3 prostate
[9] = system: MDA-MB-435
[10] = system: OVCAR-8 ovarian
[11] = system: ACHN renal
[12] = system: SK-MEL-5 melanoma
[13] = system: CCRF-CEM leukemia
[14] = system: HCT-116 colon
[15] = system: SNB-75 CNS
[16] = system: IGROV1 ovarian
[17] = system: SF-295 CNS
[18] = system: HOP-92 NSCLC
[19] = system: NCI-H460 lung
[20] = system: KM12 colon
[21] = system: DU-145 prostate
[22] = system: RPMI-8226 leukemia
[23] = system: A498 renal
[24] = system: BT-549 breast
[25] = system: MDA-N
[26] = system: NCI-H226 lung
[27] = system: HT29 colon
[28] = system: HCC-2998 colon
[29] = system: SF-268 CNS
[30] = system: UO-31 renal
[31] = system: SW-620 colon
[32] = system: EKVX NSCLC
[33] = system: SN12C renal
[34] = system: OVCAR-5 ovarian
[35] = system: U251 CNS
[36] = system: HL-60(TB) leukemia
[37] = system: NCI-H23 lung
[38] = system: 786-0 renal
[39] = system: NCI/ADR-RES ovarian
[40] = system: HCT-15 colon
[41] = system: NCI-H522 lung
[42] = system: OVCAR-4 ovarian
[43] = system: MOLT-4 leukemia
[44] = system: T-47D breast
[45] = system: MCF7 breast
[46] = system: UACC-257 melanoma
[47] = system: LOX IMVI melanoma
[48] = system: SF-539 CNS
[49] = system: A549 NSCLC
[50] = system: SK-OV-3 ovarian
[51] = system: M14 melanoma
[52] = system: CAKI-1 renal
[53] = system: SK-MEL-2 melanoma
[54] = system: SR leukemia
[55] = system: COLO 205 colon
[56] = system: MDA-MB-231 breast
[57] = system: SNB-19 CNS
[58] = system: TK-10 renal
[59] = system: HS 578T breast
[60] = system: M19-MEL melanoma
[61] = system: HOP-18 NSCLC
[62] = system: KM20L2 colon
[63] = system: DMS 273 small cell lung
[64] = system: DLD-1 colon
[65] = system: LXFL 529 NSCLC
[66] = system: XF 498 CNS
[67] = system: DMS 114 small cell lung

## CN(N)/N=N/c1nc[nH]c1C(N)=O
[1]
  TGI: > 100 µM
[2]
  TGI: > 100 µM
[3]
  TGI: > 100 µM
[4]
  TGI: > 100 µM
[5]
  TGI: > 100 µM
[6]
  TGI: > 100 µM
[7]
  TGI: > 100 µM
[8]
  TGI: > 100 µM
[9]
  TGI: > 100 µM
[10]
  TGI: > 100 µM
[11]
  TGI: > 100 µM
[12]
  TGI: > 100 µM
[13]
  TGI: > 27 µM
[14]
  TGI: > 100 µM
[15]
  TGI: > 100 µM
[16]
  TGI: > 100 µM
[17]
  TGI: > 70.9 µM
[18]
  TGI: > 100 µM
[19]
  TGI: > 71.5 µM
[20]
  TGI: > 82.4 µM
[21]
  TGI: > 100 µM
[22]
  TGI: > 100 µM
[23]
  TGI: > 100 µM
[24]
  TGI: > 100 µM
[25]
  TGI: > 100 µM
[26]
  TGI: > 100 µM
[27]
  TGI: > 100 µM
[28]
  TGI: > 42.2 µM
[29]
  TGI: > 100 µM
[30]
  TGI: > 62.2 µM
[31]
  TGI: > 100 µM
[32]
  TGI: > 100 µM
[33]
  TGI: > 57.2 µM
[34]
  TGI: > 100 µM
[35]
  TGI: > 100 µM
[36]
  TGI: 14.6 µM
[37]
  TGI: > 100 µM
[38]
  TGI: > 100 µM
[39]
  TGI: > 100 µM
[40]
  TGI: > 100 µM
[41]
  TGI: > 100 µM
[42]
  TGI: > 100 µM
[43]
  TGI: 8.05 µM
[44]
  TGI: > 100 µM
[45]
  TGI: > 100 µM
[46]
  TGI: > 100 µM
[47]
  TGI: > 100 µM
[48]
  TGI: > 100 µM
[49]
  TGI: > 100 µM
[50]
  TGI: > 100 µM
[51]
  TGI: > 100 µM
[52]
  TGI: 55.2 µM
[53]
  TGI: > 100 µM
[54]
  TGI: 2.23 µM
[55]
  TGI: > 69.7 µM
[56]
  TGI: > 32.2 µM
[57]
  TGI: > 100 µM
[58]
  TGI: > 100 µM
[59]
  TGI: > 100 µM

## CC(=O)c1cccc(NCn2nnc3ccccc32)c1
[60]
  TGI: > 100 µM
[1]
  TGI: > 100 µM
[2]
  TGI: > 100 µM
[3]
  TGI: > 100 µM
[4]
  TGI: > 100 µM
[5]
  TGI: > 100 µM
[6]
  TGI: > 100 µM
[7]
  TGI: > 100 µM
[10]
  TGI: > 100 µM
[61]
  TGI: > 100 µM
[62]
  TGI: > 100 µM
[11]
  TGI: > 100 µM
[13]
  TGI: > 100 µM
[14]
  TGI: > 100 µM
[15]
  TGI: > 100 µM
[16]
  TGI: > 100 µM
[17]
  TGI: > 100 µM
[18]
  TGI: > 100 µM
[19]
  TGI: > 100 µM
[20]
  TGI: > 100 µM
[22]
  TGI: > 100 µM
[23]
  TGI: > 100 µM
[26]
  TGI: > 100 µM
[27]
  TGI: > 100 µM
[28]
  TGI: > 100 µM
[29]
  TGI: > 100 µM
[30]
  TGI: > 100 µM
[31]
  TGI: > 100 µM
[63]
  TGI: > 100 µM
[32]
  TGI: > 100 µM
[33]
  TGI: > 100 µM
[35]
  TGI: > 100 µM
[36]
  TGI: > 100 µM
[37]
  TGI: > 100 µM
[38]
  TGI: > 100 µM
[40]
  TGI: > 100 µM
[41]
  TGI: > 100 µM
[42]
  TGI: > 100 µM
[43]
  TGI: > 100 µM
[64]
  TGI: > 100 µM
[65]
  TGI: > 100 µM
[46]
  TGI: > 100 µM
[47]
  TGI: > 100 µM
[48]
  TGI: > 100 µM
[49]
  TGI: > 100 µM
[66]
  TGI: > 100 µM
[67]
  TGI: > 100 µM
[50]
  TGI: > 100 µM
[51]
  TGI: > 100 µM
[53]
  TGI: > 100 µM
[54]
  TGI: > 100 µM
[55]
  TGI: > 100 µM
[57]
  TGI: > 100 µM
[58]
  TGI: > 100 µM
